{"source": "paper PMC4557121", "about": "“TRB3 links insulin/IGF to tumour promotion by interacting with p62 and impeding autophagic/proteasomal degradations” (Nature Communications, 2015)", "key": {"B16-F10 cells": {"system": "B16-F10 cells", "assay": "B16-F10 tumour growth and metastasis in TRB3 knockdown KK-Ay mice given 3-MA or MG132", "type": "in vivo", "conditions": "KK-Ay/TRB3-KD mice, B16-F10 s.c. or i.v.; 3-MA 30 mg kg^−1 per day or MG132 2.5 mg kg^−1 twice a week i.p.; n=6 per group; Supplementary Fig. 4g,h", "procedure": "Seven-week-old KK-Ay mice were i.p. injected with TRB3-shRNA lentiviral particles (2 × 10^5 plaque-forming unit) to generate KK-Ay/TRB3-KD mice; over 75% depletion of TRB3 in target tissues (lungs and liver) was considered as effectively knocking down. 3-MA (30 mg kg^−1 per day) or MG132 (2.5 mg kg^−1 twice a week) was i.p. injected to the KK-Ay/TRB3-KD mice, from day 9 after tumour inoculation to the time of being killed. The evaluation of tumour growth and metastasis was described in the section of ‘Mouse Models for Tumour Growth and Metastasis'.\ncontrol-shRNA. Data are the summarized fold changes of proteins (control-\nshRNA/TRB3-shRNA1) (upper) and representative spots showing\ndifferentially expressed EGFR (framed) (lower). Data are representative of 2\nindependent assays. (e) The xenograft tumours express higher pro-\nmetastasis and pro-EMT factors in KK-Ay mice than that in C57 BL/6 mice.\nData are representative immunoblots of 4 independent assays. (f) The liver\nand lung tissues express higher pro-metastasis and pro-EMT factors in\nDMBA-treated KK-Ay mice than that in DMBA-treated C57 BL/6. Data are\nrepresentative immunoblots of 4 independent assays. (g,h) Suppressing\nautophagy or UPS reverses the antitumour effect of TRB3 knockdown. TRB3\nknockdown KK-Ay mice were s.c. injected with B16-F10 cells ([…]) or i.v. […]\nStatistical significance was determined by Student’s t-test; *P<0.05, **P<0.01,"}, "[1]": {"system": "TRB3-silenced HepG2 cells", "assay": "Protein turnover assay in TRB3-silenced HepG2 cells with degradation inhibitors", "type": "cell-based, human", "conditions": "inhibitor 12 h, immunoblot, Fig. 3f", "procedure": "Figure 3 Enhanced TRB3 compromises selective autophagy and clearance of UPS. (a) BEAS-2B cells were infected with TRB3-Myc-adenovirus expressing Myc-Tagged TRB3 with an independently expressing GFP. GFP-adenovirus was used as control. Indicated molecules were detected by immunoblotting. Data are representatives of four independent assays. (b) TRB3-silenced cells were treated with IGF-1 (100 nM) for 12 h and indicated proteins were detected by immunoblotting. Data are representatives of four independent assays. (c) Control or TRB3-silenced HepG2 cells were infected with adenovirus with mRFP-GFP-LC3-PE. After 24 h, the cells were treated with IGF-1 (100 nM) for 12 h and the flux rate of autophagy was detected with Live Cell Imaging Microscopy. Data are schematic drawing of the autophagy process (upper) and microscopy images showing red-coloured autophagolysosomes or red/green double-coloured autophagosomes (lower). Scale bar, 10 μm. See also Supplementary Movies 1–6. (d) Silencing TRB3 increased the number of autophagosomes (Avi) and autolysosomes (Avd) in HepG2 cells treated with or without IGF-1 (100 nM). Data are representative images of TEMs of three independent assays. Single arrows denote Avi; double arrows indicate Avd. Scale bar, 500 nm. The ratio of autophagic vacuole area to the cytoplasmic area was determined by morphometric analysis. Data are means±s.e.m. (e) TRB3-silenced cells were treated with IGF-1 (100 nM) for 12 h. Expression of indicated proteins was detected by immunoblotting. Data are representatives of four independent assays. (f) TRB3-silenced HepG2 cells were treated with bafilomycin (left) or MG132 (right) for 12 h. Indicated proteins were detected by immunoblotting. […] The cells were treated with or without IGF-1 for 12 h and the expression of Ub^G76V-GFP was immunoblotted with anti-GFP antibody (Ab; left) or detected with flow cytometry (right). […] The proliferative and invasive capacities of cells were evaluated with Edu (h) and transwell assays (i). Statistical significance was determined with one-way analysis of variance (ANOVA); *P<0.05; **P<0.01; ***P<0.001. […]"}, "TRB3": {"molecular_target": "T1, TRB3 (Homo sapiens, UniProt Q96RU7)", "T1 sequence (Q96RU7 1-358)": "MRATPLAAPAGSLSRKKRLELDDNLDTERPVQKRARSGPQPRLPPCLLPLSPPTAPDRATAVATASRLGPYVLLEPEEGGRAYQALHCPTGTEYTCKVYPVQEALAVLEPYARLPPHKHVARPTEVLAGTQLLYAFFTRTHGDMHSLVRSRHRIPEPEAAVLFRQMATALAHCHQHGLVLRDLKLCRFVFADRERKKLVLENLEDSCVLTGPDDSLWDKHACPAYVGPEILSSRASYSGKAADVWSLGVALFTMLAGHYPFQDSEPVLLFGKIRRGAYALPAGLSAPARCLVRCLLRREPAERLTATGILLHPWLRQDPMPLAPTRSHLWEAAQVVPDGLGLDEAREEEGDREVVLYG", "assay": "Surface plasmon resonance binding of peptides to immobilized TRB3", "procedure": "Binding kinetics between TRB3 and control, P2, P4, P6, P7, P8, P9, P11, A1, A2 or A3 were measured by a surface plasmon resonance assay using BIAcore T200 instrument (GE Healthcare, Pittsburgh, USA)[53]. The dissociation constant (KD) was calculated according to the BIA-evaluation software."}, "p62": {"system": "p62", "assay": "Cycloheximide chase of p62 degradation in HepG2 cells", "type": "cell-based, human", "conditions": "CHX 10 μg ml^−1 after insulin/IGF-1 stimulation, 8.5 h without stimulation, three independent assays, Fig. 4b", "procedure": "Figure 4 TRB3 mediates insulin/IGF-induced p62 accumulation. (a) HepG2 cells were treated with indicated stimulators for 12 h. The mRNAs were determined with RT–PCR using specific primer sets. Data are means±s.e.m of three independent assays. (b) HepG2 cells were incubated with cycloheximide (CHX) (10 μg ml^−1) for indicated time points after insulin/IGF-1 stimulation. Indicated proteins were detected with immunoblotting. Data are means±s.e.m of three independent assays. (c) Control or TRB3-silenced cells were incubated with CHX (10 μg ml^−1) for indicated time points after IGF-1 stimulation. Cell lysates were isolated for immunoblotting. Data are means±s.e.m of three independent assays. (d) HepG2 cells expressing p62- or control-siRNA were co-transfected with Ub^G76V-GFP. The cells were treated with IGF-1 for 12 h. The cell lysates were isolated for immunoblotting. Data are representative of immunoblots of three independent assays. (e) Cells expressing control-shRNA or TRB3-shRNAs were transfected with Ub^G76V-GFP plasmid plus or minus with p62-DDK-expressing plasmid. The lysates were isolated for immunoblotting. […] After 24 h, the cells were treated with IGF-1 for 12 h, and the flux rate of autophagy was detected with Live Cell Imaging Microscopy. […] Indicated proteins were evaluated with immunoblotting. […] Statistical significance was determined with Student's t-test; *P<0.05. […]"}, "[2]": {"conditions": "SPR, BIAcore T200, peptide passed over TRB3 immobilized on CM5 sensor chip, alanine scan of A2, Fig. 6f, read-out: KD"}}, "note": "Where two headings read alike, the source gives them in different places. Where a SMILES comes first, the peptide text is derived from it. Where no end group is shown, it is not given here. The star is where a group is joined. Cbz = O=C(OCc1ccccc1)*"}
{"compound": "Cn1cnc(N)c2ncnc1-2", "note": "[3-MA]", "values": [{"measurement": "effect on antitumour actions of TRB3 deficiency", "setting": "B16-F10 cells", "value": "overturn the antitumour actions of TRB3 deficiency"}]}
{"compound": "CC(C)C[C@@H](C=O)NC(=O)[C@H](CC(C)C)NC(=O)[C@H](CC(C)C)NC(=O)OCc1ccccc1", "note": "[MG132] (Cbz-Leu-Leu-Leu-aldehyde)", "values": [{"measurement": "turnover of COX2, Twist and MMP-2", "setting": "[1]", "value": "inhibited"}, {"measurement": "effect on antitumour actions of TRB3 deficiency", "setting": "B16-F10 cells", "value": "overturn the antitumour actions of TRB3 deficiency"}]}
{"compound": "GGWLTRLLATK [M9]", "values": [{"measurement": "Kd", "setting": "TRB3", "value": 35600, "unit": "nM"}]}
{"compound": "insulin", "values": [{"measurement": "half-life of p62 degradation", "setting": "p62", "value": 24, "unit": "h"}]}
{"compound": "GGWLTRLLQTA [M11]", "values": [{"measurement": "Kd", "setting": "TRB3", "value": 73.1, "unit": "nM"}]}
{"compound": "CO/C1=C\\C(C)=C\\[C@@H](C)[C@@H](O)[C@@H](C)C/C(C)=C/C=C/[C@H](OC)[C@@H]([C@@H](C)[C@@H](O)[C@H](C)[C@@]2(O)C[C@@H](O)[C@H](C)[C@@H](C(C)C)O2)OC1=O", "note": "[bafilomycin]", "values": [{"measurement": "turnover of COX2, Twist and MMP-2", "setting": "[1]", "value": "not inhibited"}, {"measurement": "turnover of LC3, EGFR, c-Myc, MMP1 and p62", "setting": "[1]", "value": "inhibited"}]}
{"compound": "GGWATRLLQTK [M4]", "values": [{"measurement": "Kd", "setting": "TRB3", "value": 4320, "unit": "nM"}]}
{"compound": "GGALTRLLQTK [M3]", "values": [{"measurement": "Kd", "setting": "TRB3", "value": 3590, "unit": "nM"}]}
{"compound": "IGF-1", "values": [{"measurement": "half-life of p62 degradation", "setting": "p62", "value": 24, "unit": "h"}]}
{"compound": "GGWLARLLQTK [M5]", "values": [{"measurement": "Kd", "setting": "TRB3; [2]", "value": 110, "unit": "nM"}]}
{"compound": "GAWLTRLLQTK [M2]", "values": [{"measurement": "Kd", "setting": "TRB3", "value": 402, "unit": "nM"}]}
{"compound": "GGWLTALLQTK [M6]", "values": [{"measurement": "Kd", "setting": "TRB3; [2]", "value": 0.142, "unit": "nM"}]}
{"compound": "AGWLTRLLQTK [M1]", "values": [{"measurement": "Kd", "setting": "TRB3", "value": 1640, "unit": "nM"}]}
{"compound": "GGWLTRLLQAK [M10]", "values": [{"measurement": "Kd", "setting": "TRB3", "value": 381, "unit": "nM"}]}
{"compound": "GGWLTRALQTK [M7]", "values": [{"measurement": "Kd", "setting": "TRB3; [2]", "value": 11800, "unit": "nM"}]}
